Measured values taken from article PMC5473928 (Scientific Reports, 2017).
Like-named read-outs stand apart in the source and are kept apart here. Blank lines part the entries; values can stand above or below the molecule they belong to.

Assays:
KRasWT = target: T1, KRasWT (Homo sapiens, UniProt P01116); assay: Stopped-flow competition binding of nucleotides to nucleotide-free KRas (mantdGDP or mantdGDPβMe fluorescence, global fit); conditions: for koff: read-out: dissociation rate constant (koff)
T1 construct: His6 (cleaved yes); made in house
Description: A method which leads to estimates of the kinetic parameters as well as the affinity involves stopped-flow measurements of association of fluorescent nucleotides with nucleotide-free Ras followed by competiton between fluorescent and non-fluorescent nucleotides to obtain the parameters for the non-labelled substances.
(§1) All stopped-flow experiments were performed in a SX-20 stopped-flow apparatus (Applied Photophysics) at 25 °C in a buffer consisting of 20 mM Hepes pH 7.5, 100 mM NaCl, 1 mM TCEP, 2 mM MgCl2 (excitation with 360 nm LED, emission detection with a 420 nm cut-off filter).

HRas = tested on: HRas; design: method as in PMID 2200519; conditions: cited from earlier work; for dissociation rate constant (koff): value reported for HRas; for Kd: weakly bound competitor of mantdGDP
KRasG12C [1] = target: T2, KRasG12C (Homo sapiens, UniProt P01116, C118S/C51S/C80L/G12C); assay: ESI-MS monitoring of the covalent reaction with KRasG12C; format: biochemical
T2 construct: KRas1–169 G12C C51S C80L C118S were cloned into a modified pET19 expression vector; His6 (cleaved yes); made in house
Description: An independent confirmation of the rapid covalent reaction of SML-8-73-1 with KRasG12C was obtained by mixing the compound with the nucleotide-free protein followed by ESI-MS.
In order to test the predictions arising from the simulations in the case of SML-8-73-1, we have performed a number of semi-quantitative experiments using mass spectrometric analysis.
To allow comparison with published work, further experiments were performed at 37°. In the first experiment, the conditions described by Hunter et al.[21] were duplicated (15 µM KRasG12C, 150 µM SML-8-73-1, no added Mg^2+ ions).
In this case, there was very rapid generation of the covalent adduct, so that the first time of measurement (designated as time zero in the figure, but in practice after ca. 10 min), the reaction was practically complete (Fig. S3F).
The covalent reaction of SML-8-73-1 with KRasG12C was monitored by mass spectrometry. 200 µM SML-8-73-1 was added to the nucleotide-free protein (50 µM), 5 mM dithioerythritol (DTE) was added after ~20 s and the extent of modification monitored by ESI-MS.
For the measurements described in Fig. S3, KRasG12C and SML 8-73-1 were incubated in 20 mM HEPES pH 7.5 and 50 mM NaCl. The conditions are as mentioned in the figure. For each time point, the reaction was stopped by the addition of DTT (to 5 mM final concentration) and acetonitrile (to 25%).

KRasG12C [2] = target: T2, KRasG12C; assay: Stopped-flow competition binding and covalent reaction with nucleotide-free KRasG12C (mantdGDPβMe fluorescence, global fit); conditions: 25 °C
Description: as §1

KRasG12C [3] = target: T2, KRasG12C; conditions: cited from earlier work
KRas / SOS564–1049 = target: T3, KRas / SOS564–1049 (Homo sapiens, UniProt P01116); assay: SOS catalyzed nucleotide exchange on KRas:nucleotide complexes, stopped-flow, excess SOS (Fig. 3A); format: biochemical; conditions: not reached in SOS range used; from numerical simulations
T3 construct: His6 (cleaved yes); made in house
Description: as §1

KRas = tested on: KRas; design: method as in PMID 8419371; conditions: Mg^2+ reduced from a physiologically realistic value to 0.1 µM; cited from earlier work
HRasF28L = tested on: HRasF28L; design: method as in PMID 1894650; conditions: HRasF28L mutant; cited from earlier work
[4] = read-out: association rate constant (kon)
[5] = KRasWT, 25 °C, global fit of stopped-flow competition, read-out: association rate constant (kon)
[6] = KRasWT, 25 °C, global fit of stopped-flow competition

SMILES: COP(=O)(O)OP(=O)(O)OCC1OC(n2cnc3c(=O)[nH]c(N)nc32)C(O)C1O (stereo not drawn) [GDPβMe, β-methyl ester of GDP]
Kd (KRasWT): 130 nM | inhibition of mantdGDP binding at equilibrium (KRasWT; 3x excess of GDPβMe over mantdGDP): no significant inhibition | affinity of KRas relative to GDP (KRasWT; from similar kon and faster koff): ca. 4 orders of magnitude lower | release rate relative to GDP (KRasWT; koff of GDPβMe vs koff of GDP): approximately 10^4 times faster | kon (KRasWT; [4]): 5.8e+06 M⁻¹ s⁻¹ | koff (KRasWT): 0.8 s⁻¹

kon (KRasWT; [5]): 1.29e+07 M⁻¹ s⁻¹ | koff (KRasWT; [6]): 0.1 s⁻¹ | Kd (KRasWT; read-out: Kd): 8.5 nM
SMILES: Nc1nc2c(ncn2COCCOP(=O)(O)OP(=O)(O)OP(=O)(O)O)c(=O)[nH]1 [acyclovir triphosphate]

association rate constant (kon) (KRasWT; [6]): 3.2e+06 M⁻¹ s⁻¹
SMILES: CNc1ccccc1C(=O)O[C@H]1C[C@H](n2cnc3c(=O)[nH]c(N)nc32)O[C@@H]1COP(=O)(O)OP(=O)(O)O [mantdGDP]
dissociation rate constant (koff) (HRas): ca. 10^−4 s^−1

SMILES: Nc1nc2c(ncn2[C@@H]2O[C@H](CO)[C@@H](O)[C@H]2O)c(=O)[nH]1 [guanosine]
Kd (HRas): 153000 nM

period over which covalent modification occurred (KRasG12C [1]; 200 µM SML-8-73-1, 50 µM nucleotide-free KRasG12C, DTE quench): tens of seconds to minutes | extent of covalent reaction after 52 h (KRasG12C [1]; 25°, simulation conditions (20 µM inhibitor, 400 µM GTP, 40 µM GDP) but 10 µM KRas, Fig. S3A): almost no reaction | time to 50% reaction (KRasG12C [1]; 37°, 15 µM KRasG12C, 150 µM SML-8-73-1, no added Mg^2+ (ca. 20 µM free), Fig. S3B): 1 to 2 h | extent of covalent reaction after 51 h (KRasG12C [1]; 37°, 1.5 mM each of GTP and GTP and 3 mM Mg^2+, Fig. S3E): a few percent | kon (KRasG12C [2]; [4]): 4.1e+06 M⁻¹ s⁻¹ | koff (KRasG12C [2]; read-out: dissociation rate constant (koff)): 0.9 s⁻¹ | kinact (KRasG12C [2]; read-out: rate constant for the covalent reaction (kinact)): 0.1 s⁻¹ | kon (KRasWT; [5]): 7.4e+06 M⁻¹ s⁻¹ | koff (KRasWT; [6]): 1 s⁻¹
SMILES: Nc1nc2c(ncn2[C@@H]2O[C@H](COP(=O)(O)OP(=O)(O)OCCNC(=O)CCl)[C@@H](O)[C@H]2O)c(=O)[nH]1 [SML-8-73-1]
rate constant for the covalent reaction (KRasG12C [3]): 0.014 s⁻¹ | Kd (KRasG12C [3]; read-out: Kd for the reversible binding step): 9 nM

maximal (limiting) rate constant for nucleotide release by SOS (KRas / SOS564–1049): > 5 s⁻¹ | association rate constant (kon) (KRasWT; [6]): 4.9e+06 M⁻¹ s⁻¹ | dissociation rate constant (koff) (KRasWT; [6]): 0.4 s⁻¹
SMILES: CNc1ccccc1C(=O)O[C@H]1C[C@H](n2cnc3c(=O)[nH]c(N)nc32)O[C@@H]1COP(=O)(O)OP(=O)(O)OC [mantdGDPβMe]

kon (KRasWT; [5]): 8.2e+06 M⁻¹ s⁻¹ | Kd (KRasWT; read-out: Kd): 0.02 nM | kon (KRasWT; read-out: association rate constant (binding scheme, Fig. 1A)): 8.7e+06 ± 40000 M⁻¹ s⁻¹
SMILES: Nc1nc2c(ncn2C2OC(COP(=O)(O)OP(=O)(O)O)C(O)C2O)c(=O)[nH]1 (stereo not drawn) [GDP]
factor of acceleration of GDP release (KRas): more than 200 | factor of increase of the rate constant for GDP dissociation (HRasF28L): ca. 140 | dissociation rate constant (koff) (HRas): ca. 10^−4 s^−1

SMILES: Nc1nc2c(ncn2[C@@H]2O[C@H](COP(=O)(O)O)[C@@H](O)[C@H]2O)c(=O)[nH]1 [GMP]
Kd (HRas): 29000 nM
